PMC8546421, “Molecular modelling of the FOXO4-TP53 interaction to design senolytic peptides for the elimination of senescent cancer cells” (EBioMedicine, 2021)
Where no end group is shown, it is not given here.

What was measured:
[1] = tested on: senescent TP53 knockout MCF10a cells; test: ES2 viability in TP53 knockout vs wildtype MCF10a cells; type: cell-based, human; conditions: range of ES2 treatments
Method: A375-Luc/iRFP cells were purchased from Creative Biogene (CSC-RR0254). B16-F10 cells were purchased (ATCC Cat# CRL-6475, RRID:CVCL_0159). MCF7 cells were purchased (ATCC Cat# HTB-22, RRID:CVCL_0031). IMR90 cells were purchased (ATCC Cat# CCL-186, RRID:CVCL_0347). A375-Luc/iRFP, B16-F10, IMR90, and MCF7 cells were cultured in Dulbecco's Modified Eagle Medium (DMEM), 10% fetal bovine serum (FBS) and 1X penicillin-streptomycin (PS). HCT-116 cells were purchased (ATCC Cat# CCL-247, RRID:CVCL_0291). DLD-1 cells were purchased (ATCC Cat# CCL-221, RRID:CVCL_0248). SW480 cells were purchased (ATCC Cat# CCL-228, RRID:CVCL_0546). HCT-116, DLD-1, and SW480 cells were cultured in Roswell Park Memorial Institute 1640 (RPMI 1640), 10% FBS, and 1X PS. […]
Cell lines were treated with chemotherapy, doxorubicin (Sigma, Cat. No. 2252) to induce senescence (200 nM for HCT116, 100 nM for B16-F10 and MCF7, 50 nM for SW480 and DLD-1, 40 nM for A375-Luc/iRFP and MCF10a). […] Cellular proliferation was quantified using the Promega CellTiter 96™ AQueous One Solution Cell Proliferation Assay (MTS) after 2 hours according to the manufacturer's protocol (Promega, G3581). […]

[2] = tested on: senescent cells in the liver; test: Systemic delivery to aged mice, liver SA-β-gal; type: in vivo, mouse; conditions: aged mice (82 weeks), 3 mg ES2 via tail vein weekly for three weeks, n=5, p=0.03
Method: Senescent and dividing cells or tissue sections were fixed with 4% formaldehyde. The cells were washed with PBS twice before staining with X-gal solution [1 mg/mL 5-bromo-4-chloro-3inolyl-β-D-galactoside (Boehringer Manneheim #745-740) in N,N-dimethylformamide, 5 mM potassium ferricyanide crystalline (#P-8131), 5 mM potassium […] (#P-3289), 2 mM magnesium chloride, and 1x PBS, pH 6.0. Cells or tissue sections were incubated at 37°C for 24 hours. After staining, cells were washed with PBS before being counted and imaged on the Leica Dmi8 microscope.
Mice were aged between 3-8 months and 20-30 g in weight and were housed in specific pathogen free cages. Animals were randomly distributed among treatment groups by assigning mice within the same cage to different treatment regimens. To minimise confounders, mouse treatment order was randomised within each cage. Male and female mice were distributed between all treatment groups since the chemicals used were directly injected and are not metabolized. Researchers were not blinded to the group allocation, but all attempts were made to analyse the data without knowing treatment conditions. […] Mice were then monitored daily and allowed to age until a humane endpoint was reached according to our IACUC protocol, which in this case was tumours of 2 cm in size. […]

## PRKGGRRRRAWGRRRRRRRRRRRRRRAPRKRLTLA [ES2]
[1]
  ES2 mediated cell death in p53−/− vs p53+/+ senescent MCF10a: resistant to ES2 mediated cell death
[2]
  number of senescent cells in the liver (SA-β-gal activity): reduced the number of senescent cells in the liver by half
